Measured values taken from patent US8288421B2, “Phenylaminopyridines” (Basilea Pharmaceutica AG, priority 2004, dated 2012).

Legend:
PBL [1] = test: Mitochondrial membrane potential (JC-1); format: cell-based, human; conditions: 48 h read-out
Description: (§1) This assay is performed in 96 well tissue culture plates. Appropriate number of cells (adherent cells: 3-5*10^3, suspension cells: 8-10*10^3) are being seeded out in 80 μl complete medium. Adherent cells are incubated for 24 h for proper spreading out before addition of test compounds while suspension cells are immediately treated with test compounds after seeding out. The test compounds are added in 20 μal complete medium containing max 5% DMSO. […] The assay plates are then further incubated for 30 minutes and subsequently analyzed with a standard inverted fluorescence microscope by using the FITC and TRITC filters.
(§2) The scores A, B, C and D are explained at the end of the Table.

HeLa [2] = test: Mitochondrial membrane potential (JC-1); format: cell-based, human; conditions: 48 h read-out
Description: as §1, §2

Jurkat [3] = test: Mitochondrial membrane potential (JC-1); format: cell-based, human; conditions: 48 h read-out
Description: as §1, §2

MCF7 = test: Mitochondrial membrane potential (JC-1); format: cell-based, human; conditions: MCF7, 48 h read-out
Description: as §1, §2

Jily [4] = test: MTS proliferation assay; format: cell-based; conditions: 72 h read-out
Description: (§3) The assay is performed in 96 well tissue culture plates. The cells (range: 1.5*10^3-10^4) are seeded out in 80 μl complete medium 24 h prior to compound treatment. The test compounds are added in 20 μl complete medium containing max 5% DMSO. The final compound concentrations in the assays are in the range of 0.001 μM-10 μM. The assay plates are incubated for 72 h at culture conditions. The MTS reagent is prepared according to the manufacturer's protocol (Promega G1111). 20 μl MTS reagent are added to each well, the assay plates are quickly spun and incubated for another 3 h at culture conditions. Subsequently, the plates are shortly shaked and absorption measured with a microplate-reader at 492 nm. The scores A, B, C and D are explained at the end of the Table.

MRC5 [5] = test: MTS proliferation assay; format: cell-based; conditions: MRC5, 72 h read-out
Description: as §3

DOHH2 = test: Mitochondrial membrane potential (JC-1); format: cell-based; conditions: DOHH2, 48 h read-out
Description: as §1, §2

Jily [6] = test: Hoechst 33342 nuclear staining; format: cell-based; conditions: 48 h read-out
Description: as §1, with “μl” for “μal”, “DMSO. The final compound concentrations in the assays are in the range of 0.001 μM-10 μM.” for “DMSO.”, “microscope.” for “microscope by using the FITC and TRITC filters.”
(§4) The readout allows the determination of the fraction of apoptotic nuclei as well as other morphological criteria specific for apoptosis as a function of the treatment. The scores A, B, C and D are explained at the end of the Table.

MRC5 [7] = test: Hoechst 33342 nuclear staining; format: cell-based; conditions: MRC5, 48 h read-out
Description: as §1, with “μl” for “μal”, “DMSO. The final compound concentrations in the assays are in the range of 0.001 μM-10 μM.” for “DMSO.”, “microscope.” for “microscope by using the FITC and TRITC filters.”
as §4

HeLa [8] = test: MTS proliferation assay; format: cell-based, human; conditions: 72 h read-out
Description: as §3

Jurkat [9] = test: MTS proliferation assay; format: cell-based, human; conditions: 72 h read-out
Description: as §3

HT1080 = test: MTS proliferation assay; format: cell-based, human; conditions: HT1080, 72 h read-out
Description: as §3

PBL [10] = test: Hoechst 33342 nuclear staining; format: cell-based, human; conditions: 48 h read-out
Description: as §1, with “μl” for “μal”, “DMSO. The final compound concentrations in the assays are in the range of 0.001 μM-10 μM.” for “DMSO.”, “microscope.” for “microscope by using the FITC and TRITC filters.”
as §4

HeLa [11] = test: Hoechst 33342 nuclear staining; format: cell-based, human; conditions: 48 h read-out
Description: as §1, with “μl” for “μal”, “DMSO. The final compound concentrations in the assays are in the range of 0.001 μM-10 μM.” for “DMSO.”, “microscope.” for “microscope by using the FITC and TRITC filters.”
as §4

Jurkat [12] = test: Hoechst 33342 nuclear staining; format: cell-based, human; conditions: 48 h read-out
Description: as §1, with “μl” for “μal”, “DMSO. The final compound concentrations in the assays are in the range of 0.001 μM-10 μM.” for “DMSO.”, “microscope.” for “microscope by using the FITC and TRITC filters.”
as §4

SMILES	EC50 (PBL [1])	EC50 (HeLa [2])	EC50 (Jurkat [3])	EC50 (MCF7)	IC50 (Jily [4])	IC50 (MRC5 [5])	EC50 (DOHH2)	EC50 (Jily [6])	EC50 (MRC5 [7])	IC50 (HeLa [8])	IC50 (Jurkat [9])	IC50 (HT1080)	EC50 (PBL [10])	EC50 (HeLa [11])	EC50 (Jurkat [12])
COc1ccc(Nc2cncc(-c3cccc(NC(C)=O)c3)c2)cc1 [Example 8]	> 1000 nM	100 to 1000 nM	100 to 1000 nM	> 1000 nM	100 to 1000 nM	> 1000 nM	100 to 1000 nM	100 to 1000 nM	100 to 1000 nM	100 to 1000 nM	100 to 1000 nM	100 to 1000 nM	> 1000 nM	100 to 1000 nM	100 to 1000 nM
COc1ccc(Nc2cncc(-c3cccc(NC(=O)Cc4ccccc4)c3)c2)cc1 [Example 15]	> 1000 nM	100 to 1000 nM	10 to 100 nM	> 1000 nM	100 to 1000 nM	100 to 1000 nM	100 to 1000 nM	100 to 1000 nM	> 1000 nM	100 to 1000 nM	100 to 1000 nM	100 to 1000 nM	> 1000 nM	100 to 1000 nM	100 to 1000 nM
CCOc1ccccc1C(=O)Nc1cccc(-c2cncc(Nc3ccc(OC)cc3)c2)c1 [Example 10]	> 1000 nM	100 to 1000 nM	10 to 100 nM	100 to 1000 nM	10 to 100 nM	100 to 1000 nM	100 to 1000 nM	100 to 1000 nM	> 1000 nM	100 to 1000 nM	10 to 100 nM	10 to 100 nM	> 1000 nM	10 to 100 nM	10 to 100 nM
COc1ccc(Nc2cncc(-c3cccc(NC(=O)c4ccccc4)c3)c2)c(OC)c1 [Example 30]	> 1000 nM	> 1000 nM	> 1000 nM	> 1000 nM	100 to 1000 nM	> 1000 nM	> 1000 nM	100 to 1000 nM	> 1000 nM	> 1000 nM	100 to 1000 nM	> 1000 nM	> 1000 nM	> 1000 nM	100 to 1000 nM
COc1ccc(Nc2cncc(-c3cccc(NC(=O)c4ccccn4)c3)c2)cc1 [Example 17]	> 1000 nM	10 to 100 nM	10 to 100 nM	> 1000 nM	10 to 100 nM	10 to 100 nM	10 to 100 nM	10 to 100 nM	> 1000 nM	10 to 100 nM	< 10 nM	10 to 100 nM	> 1000 nM	10 to 100 nM	100 to 1000 nM
COc1ccc(Nc2cncc(-c3cccc(NC(=O)c4ccccc4)c3)c2)cc1OC [Example 29]	> 1000 nM	> 1000 nM	100 to 1000 nM	> 1000 nM	100 to 1000 nM	> 1000 nM	> 1000 nM	100 to 1000 nM	> 1000 nM	> 1000 nM	100 to 1000 nM	> 1000 nM	> 1000 nM	100 to 1000 nM	100 to 1000 nM
COc1ccc(Nc2cncc(-c3cccc(NC(=O)C(C)C)c3)c2)cc1 [Example 26]	> 1000 nM	> 1000 nM	100 to 1000 nM	> 1000 nM	10 to 100 nM	100 to 1000 nM	100 to 1000 nM	100 to 1000 nM	> 1000 nM	100 to 1000 nM	10 to 100 nM	100 to 1000 nM	> 1000 nM	100 to 1000 nM	10 to 100 nM
COCC(=O)Nc1cccc(-c2cncc(Nc3ccc(OC)cc3)c2)c1 [Example 41]	100 to 1000 nM	100 to 1000 nM	100 to 1000 nM	100 to 1000 nM			100 to 1000 nM	100 to 1000 nM	> 1000 nM				100 to 1000 nM	100 to 1000 nM	100 to 1000 nM
O=C(Nc1cccc(-c2cncc(Nc3ccc(OCc4ccccc4)cc3)c2)c1)c1ccccc1 [Example 27]	> 1000 nM	> 1000 nM	> 1000 nM	> 1000 nM	> 1000 nM	> 1000 nM	> 1000 nM	> 1000 nM	> 1000 nM	> 1000 nM	> 1000 nM	> 1000 nM	> 1000 nM	> 1000 nM	> 1000 nM
COc1ccc(Nc2cncc(-c3cccc(NC(=O)c4cnccn4)c3)c2)cc1 [Example 12]	> 1000 nM	100 to 1000 nM	10 to 100 nM	100 to 1000 nM	10 to 100 nM	100 to 1000 nM	10 to 100 nM	10 to 100 nM	100 to 1000 nM	10 to 100 nM	< 10 nM	10 to 100 nM	> 1000 nM	10 to 100 nM	10 to 100 nM
COc1ccc(Nc2cncc(-c3cccc(NC(=O)c4ccc(OC)cc4)c3)c2)cc1 [Example 9]	> 1000 nM	100 to 1000 nM	10 to 100 nM	100 to 1000 nM	100 to 1000 nM	> 1000 nM	10 to 100 nM			100 to 1000 nM	100 to 1000 nM	100 to 1000 nM			
COc1ccc(Nc2cncc(-c3cccc(NC(=O)c4cccc(OC)c4)c3)c2)cc1 [Example 25]	> 1000 nM	> 1000 nM	100 to 1000 nM	> 1000 nM	100 to 1000 nM	> 1000 nM	> 1000 nM	> 1000 nM	> 1000 nM	> 1000 nM	100 to 1000 nM	> 1000 nM	> 1000 nM	> 1000 nM	100 to 1000 nM
COc1ccc(Nc2cncc(-c3cccc(NC(=O)c4ccco4)c3)c2)cc1 [Example 14]	> 1000 nM	100 to 1000 nM	10 to 100 nM	> 1000 nM	10 to 100 nM	100 to 1000 nM	10 to 100 nM	10 to 100 nM	100 to 1000 nM	100 to 1000 nM	10 to 100 nM	100 to 1000 nM	> 1000 nM	100 to 1000 nM	10 to 100 nM
COc1ccc(Nc2cncc(-c3cccc(NC(=O)c4cccnc4)c3)c2)cc1 [Example 13]	> 1000 nM	100 to 1000 nM	10 to 100 nM	> 1000 nM	10 to 100 nM	100 to 1000 nM	100 to 1000 nM	100 to 1000 nM	> 1000 nM	100 to 1000 nM	10 to 100 nM	100 to 1000 nM	> 1000 nM	100 to 1000 nM	100 to 1000 nM
COc1ccc(Nc2cncc(-c3cccc(NS(=O)(=O)c4ccccc4)c3)c2)cc1 [Example 23]	> 1000 nM	100 to 1000 nM	100 to 1000 nM	100 to 1000 nM	100 to 1000 nM	100 to 1000 nM	100 to 1000 nM	100 to 1000 nM	> 1000 nM	100 to 1000 nM	100 to 1000 nM	100 to 1000 nM	> 1000 nM	100 to 1000 nM	100 to 1000 nM
COc1ccc(Nc2cncc(-c3cccc(NC(=O)c4cccs4)c3)c2)cc1 [Example 22]	> 1000 nM	10 to 100 nM	10 to 100 nM	100 to 1000 nM	10 to 100 nM	100 to 1000 nM	10 to 100 nM	10 to 100 nM	100 to 1000 nM	10 to 100 nM	10 to 100 nM	10 to 100 nM	> 1000 nM	10 to 100 nM	10 to 100 nM
CCC(=O)Nc1cccc(-c2cncc(Nc3ccc(OC)cc3)c2)c1 [Example 21]	> 1000 nM	100 to 1000 nM	100 to 1000 nM	> 1000 nM	100 to 1000 nM	100 to 1000 nM	100 to 1000 nM	100 to 1000 nM	> 1000 nM	100 to 1000 nM	10 to 100 nM	100 to 1000 nM	> 1000 nM	100 to 1000 nM	100 to 1000 nM
